Assay results from PubChem BioAssay AID248 (DTP/NCI, 2004).
Values joined by “and” are separate entries in the source; they are usually repeats but may differ in a detail not shown here. Identical values can stand only once. Toxic doses and inconclusive results are not listed. No stated cut-off is given here; in the data, active means T/C of 150% or more; inactive means T/C below 125%.

Tested on: L1210 leukemia ip in BDF1 mice, survival T/C
Assay: NCI In Vivo Anticancer Drug Screen. Data for tumor model L1210 Leukemia (intraperitoneal) in B6D2F1 (BDF1) mice
Conditions: endpoint: mean survival time, higher = longer survival
Method in brief: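 Read-out is survival time, reported as the treated-group measurement over the vehicle-control measurement.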

[1] = dose: 100.0 mg/kg/injection, schedule: Q04DX002 (ip), vehicle: Klucel (hydroxypropylcellulose) (HPC)
[2] = dose: 200.0 mg/kg/injection, schedule: Q04DX002 (ip), vehicle: Klucel (hydroxypropylcellulose) (HPC)
[3] = dose: 400.0 mg/kg/injection, schedule: Q04DX002 (ip), vehicle: Klucel (hydroxypropylcellulose) (HPC)
[4] = dose: 100.0 mg/kg/injection, schedule: Q04DX002 (ip), vehicle: saline
[5] = dose: 100.0 mg/kg/injection, schedule: Q01DX001 (ip), vehicle: carboxymethylcellulose (CMC)
[6] = dose: 200.0 mg/kg/injection, schedule: Q01DX001 (ip), vehicle: carboxymethylcellulose (CMC)
[7] = dose: 400.0 mg/kg/injection, schedule: Q01DX001 (ip), vehicle: carboxymethylcellulose (CMC)
[8] = dose: 100.0 mg/kg/injection, schedule: Q01DX009 (ip), vehicle: Klucel (hydroxypropylcellulose) (HPC)
[9] = dose: 200.0 mg/kg/injection, schedule: Q01DX009 (ip), vehicle: Klucel (hydroxypropylcellulose) (HPC)
[10] = dose: 400.0 mg/kg/injection, schedule: Q01DX009 (ip), vehicle: Klucel (hydroxypropylcellulose) (HPC)

Measured: T/C

N#Cc1ccc(/C=C\c2ccc(C#N)cc2)cc1
inactive: dose: 0.6 mg/kg/injection, schedule: Q04DX002 (ip), vehicle: Klucel (hydroxypropylcellulose) (HPC) 104 % of control | dose: 1.2 mg/kg/injection, schedule: Q04DX002 (ip), vehicle: Klucel (hydroxypropylcellulose) (HPC) 104 % of control | dose: 2.5 mg/kg/injection, schedule: Q04DX002 (ip), vehicle: Klucel (hydroxypropylcellulose) (HPC) 97 % of control | dose: 50.0 mg/kg/injection, schedule: Q04DX002 (ip), vehicle: Klucel (hydroxypropylcellulose) (HPC) 104 % of control | [1] 104 % of control and 122 % of control | [2] 109 % of control and 110 % of control | [3] 98 % of control

O=C1C=C(N2CC2)c2ccccc2C1=O
inactive: dose: 2.5 mg/kg/injection, schedule: Q01DX009 (ip), vehicle: Klucel (hydroxypropylcellulose) (HPC) 101 % of control | dose: 2.5 mg/kg/injection, schedule: Q04DX003 (ip), vehicle: Klucel (hydroxypropylcellulose) (HPC) 104 % of control | dose: 5.0 mg/kg/injection, schedule: Q01DX009 (ip), vehicle: Klucel (hydroxypropylcellulose) (HPC) 96 % of control | dose: 5.0 mg/kg/injection, schedule: Q04DX003 (ip), vehicle: Klucel (hydroxypropylcellulose) (HPC) 104 % of control | dose: 10.0 mg/kg/injection, schedule: Q01DX009 (ip), vehicle: Klucel (hydroxypropylcellulose) (HPC) 100 % of control | dose: 10.0 mg/kg/injection, schedule: Q04DX003 (ip), vehicle: Klucel (hydroxypropylcellulose) (HPC) 102 % of control | dose: 20.0 mg/kg/injection, schedule: Q01DX001 (ip), vehicle: Klucel (hydroxypropylcellulose) (HPC) 105 % of control | dose: 20.0 mg/kg/injection, schedule: Q01DX009 (ip), vehicle: Klucel (hydroxypropylcellulose) (HPC) 104 % of control | dose: 20.0 mg/kg/injection, schedule: Q04DX003 (ip), vehicle: Klucel (hydroxypropylcellulose) (HPC) 109 % of control

CCN(CC)CC(=O)NC(CCN(C)C)c1cccc2ccccc12 (stereo unspecified)
inactive: dose: 25.0 mg/kg/injection, schedule: Q04DX002 (ip), vehicle: saline 103 % of control | dose: 50.0 mg/kg/injection, schedule: Q04DX002 (ip), vehicle: saline 103 % of control | [4] 98 % of control

CNNc1cc(CO)cnc1SC
inactive: dose: 100.0 mg/kg/injection, schedule: Q01DX001 (ip), vehicle: saline 105 % of control | dose: 200.0 mg/kg/injection, schedule: Q01DX001 (ip), vehicle: saline 104 % of control

C=CCc1ccccc1OCC(=O)O
inactive: [1] 91 % of control | [2] 95 % of control | [3] 104 % of control

CCC1CN1P1(=O)OCC(CC)([N+](=O)[O-])CO1 (stereo unspecified)
inactive: [5] 90 % of control | [6] 101 % of control | [7] 97 % of control

c1ccc(C2=C(c3ccccc3)C23SCCS3)cc1
inactive: [8] 101 % of control | dose: 100.0 mg/kg/injection, schedule: Q04DX003 (ip), vehicle: Klucel (hydroxypropylcellulose) (HPC) 94 % of control | [9] 97 % of control | dose: 200.0 mg/kg/injection, schedule: Q04DX003 (ip), vehicle: Klucel (hydroxypropylcellulose) (HPC) 100 % of control | [10] 98 % of control | dose: 400.0 mg/kg/injection, schedule: Q04DX003 (ip), vehicle: Klucel (hydroxypropylcellulose) (HPC) 96 % of control

CCCCNC(=O)C(=O)NCCCC
inactive: dose: 100.0 mg/kg/injection, schedule: Q01DX001 (ip), vehicle: Klucel (hydroxypropylcellulose) (HPC) 108 % of control | dose: 100.0 mg/kg/injection, schedule: Q01DX009 (ip), vehicle: other 90 % of control | [1] 96 % of control | dose: 200.0 mg/kg/injection, schedule: Q01DX001 (ip), vehicle: Klucel (hydroxypropylcellulose) (HPC) 103 % of control | dose: 200.0 mg/kg/injection, schedule: Q01DX009 (ip), vehicle: other 94 % of control | [2] 96 % of control | dose: 400.0 mg/kg/injection, schedule: Q01DX001 (ip), vehicle: Klucel (hydroxypropylcellulose) (HPC) 97 % of control | dose: 400.0 mg/kg/injection, schedule: Q01DX009 (ip), vehicle: other 95 % of control | [3] 103 % of control

C/C=C/C1=C(Cl)C(=O)[C@@H](Cl)[C@@]1(O)C(=O)OC
inactive: dose: 1.25 mg/kg/injection, schedule: Q01DX009 (ip), vehicle: saline 101 % of control | dose: 2.5 mg/kg/injection, schedule: Q01DX009 (ip), vehicle: saline 97 % of control | dose: 2.5 mg/kg/injection, schedule: Q04DX003 (ip), vehicle: saline 101 % of control | dose: 5.0 mg/kg/injection, schedule: Q01DX009 (ip), vehicle: saline 103 % of control | dose: 5.0 mg/kg/injection, schedule: Q04DX003 (ip), vehicle: saline 95 % of control | dose: 10.0 mg/kg/injection, schedule: Q01DX001 (ip), vehicle: saline 94 % of control | dose: 10.0 mg/kg/injection, schedule: Q04DX003 (ip), vehicle: saline 100 % of control

CC1CC(=O)c2c(O)ccc(O)c21 (stereo unspecified)
inactive: [5] 96 % of control | [6] 89 % of control | [7] 100 % of control

C/C=C/C=C\COC(=O)C(C)C
inactive: [4] 103 % of control | dose: 200.0 mg/kg/injection, schedule: Q04DX002 (ip), vehicle: saline 96 % of control | dose: 400.0 mg/kg/injection, schedule: Q04DX002 (ip), vehicle: saline 114 % of control

Cc1cc(N=O)c(NO)cc1C
inactive: [8] 108 % of control | [9] 103 % of control | [10] 118 % of control

CCc1n[nH]c(=S)n1N
inactive: dose: 12.5 mg/kg/injection, schedule: Q04DX003 (ip), vehicle: Klucel (hydroxypropylcellulose) (HPC) 94 % of control | dose: 25.0 mg/kg/injection, schedule: Q04DX003 (ip), vehicle: Klucel (hydroxypropylcellulose) (HPC) 89 % of control | dose: 50.0 mg/kg/injection, schedule: Q04DX003 (ip), vehicle: Klucel (hydroxypropylcellulose) (HPC) 96 % of control

O=N[C@@H]1CCC[C@H](Cl)C1
inactive: dose: 100.0 mg/kg/injection, schedule: Q04DX003 (ip), vehicle: saline with Tween-80 95 % of control | dose: 200.0 mg/kg/injection, schedule: Q04DX003 (ip), vehicle: saline with Tween-80 98 % of control | dose: 400.0 mg/kg/injection, schedule: Q04DX003 (ip), vehicle: saline with Tween-80 95 % of control

CCOC(=O)NNC(=O)O
inactive: dose: 50.0 mg/kg/injection, schedule: Q01DX001 (ip), vehicle: carboxymethylcellulose (CMC) 108 % of control | [5] 90 % of control

C/C(N=Nc1ccccc1[N+](=O)[O-])=N\Nc1ccccc1
inactive: dose: 50.0 mg/kg/injection, schedule: Q01DX009 (ip), vehicle: Klucel (hydroxypropylcellulose) (HPC) 95 % of control | [8] 97 % of control | [9] 95 % of control | [10] 95 % of control

C=C(C)C(=O)OCC1CO1 (stereo unspecified)
inactive: dose: 50.0 mg/kg/injection, schedule: Q01DX Z (ip), vehicle: other 90 % of control | dose: 100.0 mg/kg/injection, schedule: Q01DX Z (ip), vehicle: other 95 % of control | dose: 200.0 mg/kg/injection, schedule: Q01DX Z (ip), vehicle: other 107 % of control

CCOC(=O)c1ccc(NC(=O)CN2CCOCC2)cc1
inactive: dose: 222.0 mg/kg/injection, schedule: Q01DX Z (ip), vehicle: saline 102 % of control | dose: 333.0 mg/kg/injection, schedule: Q01DX Z (ip), vehicle: saline 98 % of control | dose: 500.0 mg/kg/injection, schedule: Q01DX Z (ip), vehicle: saline 90 % of control
